Assays:
Format in all cases: in vivo
[1] = tested on: Ipomea hederaceae (IPOHE); experiment: Post-emergence biological efficacy, glasshouse pot test; settings: Ipomoea hederacea, 312 h; Rate 1,000 g/ha; post-emergence spray; evaluated after 13 days (100=total damage to plant; 0=no damage to plant); read-out: Percentage damage caused to weed species, post-emergence, IPOHE
In short: (§1)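 Scored 13 days after spraying on a 0 (no damage) to 100 (total damage) scale. Treatment was a post-emergence spray at 1000 or 250 g/ha, from acetone/water 50:50 plus 0.5% Tween 20, onto 8-day-old plants in soil pots. Growth at 24/16° C, 14 h photoperiod, 65% humidity, watered twice daily.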

[2] = tested on: Setaria faberi (SETFA); experiment: as above; settings: 312 h, Rate 1,000 g/ha, post-emergence spray, evaluated after 13 days (100=total damage to plant; 0=no damage to plant), read-out: Percentage damage caused to weed species, post-emergence, SETFA
In short: as §1

[3] = tested on: Solanum nigrum (SOLNI); experiment: as above; settings: 312 h, Rate 1,000 g/ha, post-emergence spray, evaluated after 13 days (100=total damage to plant; 0=no damage to plant), read-out: Percentage damage caused to weed species, post-emergence, SOLNI
In short: as §1

[4] = tested on: Echinochloa crus-galli (ECHCG); experiment: as above; settings: 312 h, Rate 1,000 g/ha, post-emergence spray, evaluated after 13 days (100=total damage to plant; 0=no damage to plant), read-out: Percentage damage caused to weed species, post-emergence, ECHCG
In short: as §1

[5] = tested on: Amaranthus retoflexus (AMARE); experiment: as above; settings: Amaranthus retroflexus, 312 h; Rate 1,000 g/ha; post-emergence spray; evaluated after 13 days (100=total damage to plant; 0=no damage to plant); read-out: Percentage damage caused to weed species, post-emergence, AMARE
In short: as §1

[6] = tested on: Alopecurus myosuroides (ALOMY); experiment: as above; settings: 312 h, Rate 1,000 g/ha, post-emergence spray, evaluated after 13 days (100=total damage to plant; 0=no damage to plant), read-out: Percentage damage caused to weed species, post-emergence, ALOMY
In short: as §1

[7] = tested on: Ipomea hederaceae (IPOHE); experiment: Pre-emergence biological efficacy, glasshouse pot test; settings: Ipomoea hederacea, 312 h; pre-emergence, rate 1,000 g/ha, evaluated after 13 days (100=total damage to plant; 0=no damage); read-out: Percentage damage caused to weed species, IPOHE
In short: (§2)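 Sow seeds in pots of standard soil; after one day in the glasshouse, spray test compound (1000 or 250 g/ha) in aqueous acetone/water with 0.5% Tween 20. Grow 13 days at 24/16 °C day/night, then score damage from 0 to 100.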

[8] = tested on: Setaria faberi (SETFA); experiment: as above; settings: 312 h, pre-emergence, rate 1,000 g/ha, evaluated after 13 days (100=total damage to plant; 0=no damage), read-out: Percentage damage caused to weed species, SETFA
In short: as §2

[9] = tested on: Solanum nigrum (SOLNI); experiment: as above; settings: 312 h, pre-emergence, rate 1,000 g/ha, evaluated after 13 days (100=total damage to plant; 0=no damage), read-out: Percentage damage caused to weed species, SOLNI
In short: as §2

[10] = tested on: Echinochloa crus-galli (ECHCG); experiment: as above; settings: 312 h, pre-emergence, rate 1,000 g/ha, evaluated after 13 days (100=total damage to plant; 0=no damage), read-out: Percentage damage caused to weed species, ECHCG
In short: as §2

[11] = tested on: Amaranthus retoflexus (AMARE); experiment: as above; settings: Amaranthus retroflexus, 312 h; pre-emergence, rate 1,000 g/ha, evaluated after 13 days (100=total damage to plant; 0=no damage); read-out: Percentage damage caused to weed species, AMARE
In short: as §2

[12] = tested on: Alopecurus myosuroides (ALOMY); experiment: as above; settings: 312 h, pre-emergence, rate 1,000 g/ha, evaluated after 13 days (100=total damage to plant; 0=no damage), read-out: Percentage damage caused to weed species, ALOMY
In short: as §2

Structure (SMILES)	pest or weed control at 1000 g/ha [1]	pest or weed control at 1000 g/ha [2]	pest or weed control at 1000 g/ha [3]	pest or weed control at 1000 g/ha [4]	pest or weed control at 1000 g/ha [5]	pest or weed control at 1000 g/ha [6]	pest or weed control at 1000 g/ha [7]	pest or weed control at 1000 g/ha [8]	pest or weed control at 1000 g/ha [9]	pest or weed control at 1000 g/ha [10]	pest or weed control at 1000 g/ha [11]	pest or weed control at 1000 g/ha [12]
CCN(Cc1ccccc1F)c1nc(C2CC2)nc(C(=O)OC)c1Cl [Compound 6-64, 5-Chloro-2-cyclopropyl-4-[N-ethyl-N-(2-fluoro-phenyl)methyl-amino]-6-methoxycarbonyl-pyrimidine]	100%	90%	100%	70%	100%	30%	50%	30%	20%	20%	60%	10%
CCN(Cc1cccc(F)c1)c1nc(C2CC2)nc(C(=O)OC)c1Cl [Compound 6-65, 5-Chloro-2-cyclopropyl-4-[N-ethyl-N-(3-fluorophenylmethyl)-amino]-6-methoxycarbonyl-pyrimidine]	100%	90%	90%	70%	100%	10%	70%	30%	40%	20%	70%	20%
CCN(Cc1ccc(F)cc1)c1nc(C2CC2)nc(C(=O)OC)c1Cl [Compound 6-66, 5-Chloro-2-cyclopropyl-4-[N-ethyl-N-(4-fluorophenylmethyl)-amino]-6-methoxycarbonyl-pyrimidine]	100%	90%	90%	60%	100%	40%	80%	10%	20%	0%	50%	20%
CCN(Cc1c(F)cccc1Cl)c1nc(C2CC2)nc(C(=O)OC)c1Cl [Compound 6-102, 5-Chloro-4-[N-(2-chloro-6-fluorophenylmethyl)-N-ethyl-amino]-2-cyclopropyl-6-methoxycarbonyl-pyrimidine]	90%	80%	90%	70%	100%	20%	60%	0%	60%	0%	100%	0%
CCN(Cc1ccc(OC)c(OC)c1)c1nc(C2CC2)nc(C(=O)OC)c1Cl [Compound 6-112, 5-Chloro-2-cyclopropyl-4-[N-(3,4-dimethoxy-phenylmethyl)-N-ethyl-amino]-6-methoxycarbonyl-pyrimidine]	80%	80%	80%	70%	100%	30%	60%	0%	10%	10%	60%	10%
CCN(Cc1ccco1)c1nc(C2CC2)nc(C(=O)OC)c1Cl [Compound 6-125, 5-Chloro-2-cyclopropyl-4-(N-ethyl-N-furan-2-ylmethyl-amino)-6-methoxycarbonyl-pyrimidine]	100%	90%	90%	60%	100%	40%	100%	30%	80%	40%	90%	50%
CCN(Cc1ccc(C)o1)c1nc(C2CC2)nc(C(=O)OC)c1Cl [Compound 6-135, 5-Chloro-2-cyclopropyl-4-[N-ethyl-N-(5-methylfuran-2-ylmethyl)-amino]-6-methoxycarbonyl-pyrimidine]	90%	90%	90%	60%	100%	30%	100%	40%	80%	60%	100%	40%
CCN(Cc1cccs1)c1nc(C2CC2)nc(C(=O)OC)c1Cl [Compound 6-140, 5-Chloro-2-cyclopropyl-4-(N-ethyl-N-thiophen-2-ylmethyl-amino)6-methoxycarbonyl-pyrimidine]	100%	70%	80%	40%	100%	40%	80%	0%	30%	20%	80%	10%
CCN(Cc1ccc(Br)s1)c1nc(C2CC2)nc(C(=O)OC)c1Cl [Compound 6-142, 4-[N-(5-bromothiophen-2-ylmethyl)-N-ethyl-amino]-5-chloro-2-cyclopropyl-6-methoxycarbonyl-pyrimidine]	100%	90%	90%	60%	100%	30%	60%	10%	10%	0%	50%	0%
CCN(Cc1ccnc(C)n1)c1nc(C2CC2)nc(C(=O)OC)c1Cl [Compound 6-161, 5-Chloro-2-cyclopropyl-4-[N-ethyl-N-(2-methylpyrimidin-4-ylmethyl)-amino]-6-methoxycarbonyl-pyrimidine]	80%	30%	70%	0%	70%	0%	80%	0%	20%	0%	100%	0%
CCOC(=O)c1nc(C2CC2)nc(NCc2ccccc2)c1Cl [Compound 7-60, 5-chloro-2-cyclopropyl-6-ethoxycarbonyl-4-phenylmethyl-aminopyrimidine]	90%	90%	90%	70%	100%	30%	70%	50%	90%	50%	70%	30%

Source: US20110086759A1, “CHEMICAL COMPOUNDS” (SYNGENTA CROP PROTECTION, INC., priority 2007, published 2011)
